In brackets after ≈: the same amount, converted by molar mass. Where two headings read alike, the source gives them in different places.
Key:
HCT116 cells [1] = assay: Morphological assessment, phase contrast inverted microscope; format: cell-based; conditions: 0.1 µM (sub-inhibitory), 24 h
Description: HCT116 cells were seeded in 24 well culture plates with a cell density of 1 × 10^5 cells/well. After 24 h cells were incubated for 24 h with different concentration of the selected PMs, and observed under a phase contrast inverted microscope (Carl Zeiss) at 200× magnification, for morphological changes assessment.

[2] = tested on: HCT116 and MCF 7 cancer cell lines; assay: MTT viability assay, statements over both cancer cell lines; format: cell-based
Description: (§1) The HCT116 colon cancer cell line (ATCC® CCL-247™), the MCF 7 breast cancer cell line (ATCC® HTB-22™) and the hTERT RPE-1 -immortalized retinal pigment epithelial cell line (ATCC® CRL-4000™) used in this study were cultured in DMEM medium (Gibco, Paisley, UK), supplemented with 1% glutamine, 10% heat-inactivated fetal bovine serum and 100U/mL penicillin and 100 μg/mL streptomycin, as already described, and maintained at 37 °C and 5% CO2.
(§2) Cells were plated at 5 × 10^3 cells/well in 96-well plates and incubated for 24 h prior to treatment for further 48 h of different concentrations of PMs. After incubation, a sample of 20 μL of Thiazolyl Blue Tetrazolium Bromide (5 mg mL^−1) in PBS was added to each well and cultured for 2h at 37 °C in CO2 incubator. After removing the medium containing MTT and three washes with PBS, 100 μL of warm DMSO was added to each well to dissolve formazan. Samples were shaken for 10 min, at room temperature in the dark, and the absorbance was recorded at 570 nm using a microplate reader (Spark® 20M Tecan Trading AG, Switzerland). Percentage of cell viability with respect to untreated control cells (vehicle control) was calculated after subtraction of the blank. The IC50 values, that is the concentration necessary to inhibit the 50% of cell growth, was calculated using a dose-response model, obtained from sigmoidal fitting of response curves of percent inhibition versus logarithmic concentration of PMs, using Graph Pad Prism software. Each result represents the mean value of three different experiments performed in triplicate.

[3] = tested on: hTERT RPE-1 immortalized retinal pigment epithelial cell line; assay: MTT viability assay (cytotoxicity on normal cells); format: cell-based; conditions: hTERT-RPE1, 48 h, read-out: IC50 hTERT-RPE-1
Description: as §1, §2

P. aeruginosa = assay: MIC by absorbance at 600 nm after overnight challenge; format: cell-based; conditions: Pseudomonas aeruginosa, LB medium, absorbance 600 nm
Description: (§3) Kill curve assays were performed to test the antimicrobial efficacy of pyrrolomycins (i.e., 1, 2, 5a, 5b, 5c, 5d), as well as that of the natural PM-C against the indicator pathogen Staphylococcus aureus ATCC 25923 and Pseudomonas aeruginosa ATCC 10145 strains. Briefly, a single colony of either S. aureus or P. aeruginosa strains was picked up and pre-cultivated (ca. 16 h) at 37 °C with shacking (160 rpm) in Luria Bertani medium (hereinafter named as LB and composed of (g L^−1): sodium chloride, 10; yeast extract, 5; tryptone, 10). The same medium was solidified by adding 15 g L^−1 of bacteriological agar when needed. Bacterial cells were then inoculated (1% v/v) in LB medium amended with increasing concentrations—ranging from 0 to 100 μM as initial concentration—of each pyrrolomycin tested, challenging the cultures for 24 h and incubating them as reported above. The actual number of viable colony forming units per milliliter of culture (CFU mL^−1) of each bacterial strain, who survived the challenge exerted by pyrrolomycins, was evaluated through the spot plate count method and compared to unchallenged cultures, as reported elsewhere. The data are reported as average values (n = 3) of CFU mL^−1 in the logarithmic (Log10) scale with standard deviation (SD). Evaluation of the MIC of PM-5c, and -5d against S. aureus and of PM-5d against P. aeruginosa was performed by incubating 1% (v/v) of an overnight bacterial suspension in LB medium in presence of increasing concentrations of the PMs. As a control, MIC of PM-C was measured. At the time of the inoculum and after overnight challenge, the absorbance of the cultures at 600 nm, which is an indirect way to measure the bacterial cell growth, was registered using a Spark™ 10 M multimode microplate reader measuring. The experiment was carried out in triplicate, being the absorbance corrected by subtracting that of the culture medium amended with the corresponding PM tested.

S. aureus = assay: as above; format: cell-based; conditions: Staphylococcus aureus, LB medium, absorbance 600 nm
Description: as §3

[4] = tested on: Pseudomonas aeruginosa ATCC 10145; assay: Kill curve assay (MBC), planktonic cells; format: cell-based; conditions: for MBC: read-out: MBC P. aeruginosa
Description: as §3

[5] = tested on: Staphylococcus aureus ATCC 25923; assay: Kill curve assay (MBC), planktonic cells; format: cell-based
Description: as §3

[6] = tested on: HCT116 colon cancer cell line; assay: MTT viability assay; format: cell-based
Description: as §1, §2

[7] = tested on: MCF 7 breast cancer cell line; assay: MTT viability assay; format: cell-based
Description: as §1, §2

HCT116 cells [8] = assay: Acridine orange/ethidium bromide (AO/EB) staining; format: cell-based; conditions: treated at IC50 for 24 and 48 h
Description: Cells were immediately observed under a fluorescent microscopy (Carl Zeiss) at 630 × magnification.

P. aeruginosa cells = assay: AO/EB double staining of bacterial cells; format: cell-based, Pseudomonas aeruginosa; conditions: 100 μM, 24 h
Description: It is noteworthy to highlight that the main difference between PM-C and 5d relies only on the presence of the nitro group in the position R3 of the latter, which is likely responsible for its enhanced electronegativity and, therefore, better biological reactivity over PM-C.
Figure 3 Fluorescence micrographs of P. aeruginosa cells treated for 24 h with 100 μM of PM-C or 10 μM of PM 5d after AO/EB double staining. Control represents untreated cells. Green (AO) are viable cells, red (EB) dead cells, and orange vital cells with damaged membranes.

Escherichia coli = tested on: Escherichia coli; set-up: method as in PMID 31405863, PMID 15730262; conditions: natural PMs; cited from earlier work

In the case of O=C(c1cc(Cl)c(Cl)[nH]1)c1cc(Cl)cc(Cl)c1O [PM-C, reference compound], the “morphology of treated HCT116 cells” value (HCT116 cells [1]) is reported as “more fibroblastic and less clumped morphology”, the IC50 ([2]; MTT, 48 h challenge, group statement, read-out: IC50, regardless of the cancer cell line (HCT116, MCF 7)) is reported as 800 to 2250 nM and the “C-SI, mean value among the two cancer cell lines” value ([2]; mean of HCT116 and MCF 7 C-SI) is reported as 8. For the same molecule, the IC50 [3] was 8.3 ± 1.9 µM, the MIC (P. aeruginosa) was > 40 µM and the MIC (S. aureus) was 1 µM (≈ 0.325 µg/mL). The MBC ([4]; Pseudomonas aeruginosa, ATCC10145, 24 h) was > 100 µM, the “log reduction in the number of viable CFUs, P. aeruginosa” value ([4]; highest concentration tested 100 μM, 24 h) was “did not display any antimicrobial effect” and the MBC ([4]; minimal bactericidal concentration, planktonic cells, 24 h challenge, LB medium) was >100 µM. The MBC ([5]; Staphylococcus aureus, ATCC25923, 24 h, read-out: MBC S. aureus) was 90 µM (≈ 29.2 µg/mL), the “decrease in the number of vital S. aureus cells” value ([5]; increasing concentrations up to 80 μM, 24 h) was ~ 3 log and the IC50 ([6]; Homo sapiens, HCT-116, 48 h, MTT, 48 h of treatment) was 800 ± 300 nM. For the same molecule, the “C-SI (Cancer Selectivity Index), HCT116” value ([6]; ratio of IC50 of normal hTERT-RPE-1 to that of HCT116, first value of the cell) was 10.4, the IC50 ([7]; Homo sapiens, MCF7, 48 h, MTT, 48 h of treatment) was 1500 ± 400 nM and the “C-SI (Cancer Selectivity Index), MCF 7” value ([7]; ratio of IC50 of normal hTERT-RPE-1 to that of MCF 7, second value of the cell) was 5.5. The “AO/EB fluorescence of treated HCT116 cells (type of cell death)” value (HCT116 cells [8]) was “orange fluorescence”, the “AO/EB staining colour of P. aeruginosa cells” value (P. aeruginosa cells) was “appeared green” and the “MIC against Escherichia coli” value (Escherichia coli) was “more than 300 μM”.
